# From patent US20100048605A1, “SYNERGISTIC EFFECTS OF COMBINATIONS OF N[…] OPIOIDS FOR THE TREATMENT OF PAIN” (University of Kentucky Research Foundation, priority 2006, published 2010)
# What was measured:
# [1] = test system: rodent model of nociceptive pain (tail-flick test); assay: Tail-flick test after intraperitoneal (IP) administration; type: in vivo, Sprague Dawley male rats; conditions: rat
# Protocol: Sprague Dawley (about 90 days old, 350 g; Harlem, IN) male rats were used. S(−)-nornicotine fumarate (2.57 mg/kg), R(+)-nornicotine fumarate (2.57 mg/kg) and morphine sulfate (3 mg/kg) were dissolved in saline and injected intraperitonealy (IP, 1 ml/kg). Each rat received three treatments: either S(−)-nornicotine alone, morphine alone and S(−)-nornicotine followed by morphine or R(+)-nornicotine alone, morphine alone and R(+)-nornicotine followed by morphine. Injections were made in randomized fashion at 48 hour intervals. The responses to acute thermal stimuli were determined using the tail-flick test [D'Amour F. E., Smith D. L. “A method for determining loss of pain sensation” J Pharmacol Exp Ther (1941), 72:74-79]. Tail-flick latency (TFL) was measured by recording the time from the onset of the heat stimulus to the tail to withdrawal of the tail from the heat source, using a standard tail-flick apparatus (IITC, Life Science). The sensitivity of the instrument was adjusted to provide a baseline about 2 seconds. Cut-off time of 10 seconds was used to avoid tail damage. TFL were determined prior to (twice, about 15 minutes apart) and at […] after administration. Data were normalized for pre-injection baseline. Areas under the curve (AUC0-180min) were calculated for normalized data by trapezoidal rule. […]
# [2] = test system: rodent model of nociceptive pain (tail-flick test); assay: Tail-flick test after intrathecal (IT) administration; type: in vivo, Sprague Dawley male rats; conditions: rat
# Protocol: Chronic catheterization of the spinal subarachnoid space was performed in Sprague Dawley male rats (about 90 days old, 350 g; Harlem, IN) according to minor modification of the method described by [Yaksh T and Rudy T. “Chronic catheterization of the spinal subarachnoid space” Physiol Behav (1976) 17:1031-1036]. Briefly, a 21 cm long P-10 polyethylene tubing (volume 10 mcl) which extended 8.5 cm beyond an incision in the atlanto-occipital membrane was inserted and secured to the scull with acrylic cement. The catheter rested in the vicinity of T-12 at the rostral face of the lumbar cord enlargement. The study was initiated 7 days after IT catheterization.
# S(−)-nornicotine perchlorate (10 mcg), R(+)-nornicotine perchlorate (10 mcg) and morphine sulfate (0.5 mcg) were dissolved in saline and administered by the intrathecal (IT) route (10 mcl). Groups of rats was treated with S(−)-nornicotine alone and in combination with morphine, […] alone and in combination with morphine, morphine alone, and saline (10 mcl). The responses to acute thermal stimuli were determined using the tail-flick test (a baseline equal to about 2-3 seconds, cut-off time of 10 seconds). […] Data are presented as time courses of the TFL (normalized for baseline) and areas under the curve (AUC0-180min). All data are mean±SEM (n=4-6 rats). Doses refer to salts.
# [3] = following peripheral administration of nicotine; cited from earlier work
# [4] = compared with nicotine; cited from earlier work
# [5] = following repeated nicotine dosing; cited from earlier work
# [6] = humans; cited from earlier work
Structure (SMILES),"analgesia of S(−)-nornicotine alone (tail-flick latency, AUC0-180min) ([1]; S(−)-nornicotine fumarate 2.57 mg/kg alone)","effect on the analgesic effect of morphine (tail-flick latency, AUC0-180min) ([1]; S(−)-nornicotine fumarate 2.57 mg/kg followed by morphine sulfate 3 mg/kg)","analgesia of S(−)-nornicotine alone (tail-flick latency, AUC0-180min) ([2]; S(−)-nornicotine perchlorate 10 mcg alone)","effect on the analgesic effect of morphine (tail-flick latency, AUC0-180min) ([2]; S(−)-nornicotine perchlorate 10 mcg with morphine sulfate 0.5 mcg)",residence in the rat's brain [3] [min],bioavailability (in words) [4],residence in the rat's brain relative to nicotine [3],accumulation in the brain compared to nicotine [5],plasma half-life [6] [h]
c1cncc([C@@H]2CCCN2)c1 [S(−)-nornicotine],did not produce analgesia,significantly enhanced,did not produce analgesia,significantly enhanced,,,,,
"CN1CCCC1c1cccnc1 (stereo not shown) [nicotine, reference compound]",,,,,52,,,,
c1cncc([C@@H]2CCCN2)c1 [nornicotine],,,,,166,superior,about 3 times,about 4 fold,8
